{"source": "patent US12357644B2", "about": "“Acetyl salicylic acid composition for intravenous administration, its storage, production and use” (HYLORIS DEVELOPMENTS SA, priority 2022, dated 2025)", "assay_type_in_all_cases": "physicochemical", "key": {"[1]": {"assay": "Assay and purity by HPLC on non-irradiated and gamma-irradiated ASA powder", "conditions": "after gamma irradiation", "experimental": "The packaged ASA was end-sterilized by 25 or 55 kGy using a Cobalt60 irradiation source. Inside the installation, samples are placed on a turn table which is turned a quarter to expose each sample from each side at equal amounts of irradiation. For each 1 kGy, the sample is irradiated for 10 min.\nAfter gamma-irradiation, the samples were again analysed for sterility according to Ph. Eur. 2.6.1., which is harmonized with USP 71. Potential degradation was monitored by determining assay and purity by HPLC.\nSalicylic acid levels were less than 0.05%."}, "[2]": {"assay": "Saturated solubility of ASA after 1 hour shaking in a medium selection", "conditions": "for solubility thermodynamic at 1 h: thermodynamic from solid, read-out: Individual concentration at saturation (Cs), Aspirin (A)", "experimental": "Prior to spray drying experiments, the solution pH of different solvents and the saturation solubility of ASA in different solvents was screened. The acidified mediums were prepared as follows:\n8.5 ml of hydrochloric acid (about 35% v/v) was transferred into 900 ml of water and diluted to 1000 ml with water. 10.0 ml of this solution was diluted to 1000 ml with water. The pH of the solution was noted.\n8.5 ml of hydrochloric acid (about 35% v/v) was transferred into 900 mL 96% ethanol and diluted to 1000 ml with water. 10.0 ml of this solution was diluted to 1000 ml with 96% ethanol. The pH of the solution was noted.\n8.5 ml of hydrochloric acid (about 35% v/v) was transferred into 900 mL Tertiary butyl alcohol and diluted to 1000 ml with Tertiary butyl alcohol. 10.0 ml of this solution was diluted to 1000 ml with 96% Tertiary butyl alcohol. The pH of the solution was noted.\n8.5 ml of hydrochloric acid (about 35% v/v) was transferred into 900 ml water and diluted to 1000 ml with water. 10.0 ml of this solution was diluted to 1000 ml with water. […] The pH of the solution was noted.\nASA has more solubility in non-aqueous media compared to aqueous media and ASA dissolves better in ethanol compared to tertiary butyl alcohol however it also has higher salicylic acid content (Tables 6 and 7). Once it is acidified the salicylic acid levels are lowered."}, "[3]": {"assay": "Reconstitution testing of ASA in buffer diluents", "conditions": "gamma irradiated ASA", "experimental": "The material produced in the radiation and spray drying experiments was tested in reconstitution studies and compared to non-sterile, crystalline acetyl salicylic acid.\nThe buffer systems were tested for reconstitution of 325.0 mg gamma irradiated acetyl salicylic acid powder in 5 or 10 ml reconstitution fluid. Different buffer strengths were screened. […]"}, "[4]": {"conditions": "buffer —, purified water Ad 10 g, 10 mL"}}, "note": "Values joined by “and” are separate entries in the source; they are usually repeats but may differ in a detail not shown here. Identical values can stand only once. Like-named read-outs stand apart in the source and are kept apart here.", "data": [{"smiles": "CC(=O)Oc1ccccc1C(=O)O", "note": "[ASA, Acetyl salicylic acid]", "values": [{"measurement": "Salicylic acid levels", "setting": "[1]", "result": "less than 0.05%"}, {"measurement": "impurities identified", "setting": "[1]", "result": "no impurities were identified"}, {"measurement": "solubility thermodynamic at 1 h", "setting": "[2]; 60 g/L mannitol solution, saline or isotonic, 60 g/L mannitol, without pH adjustment", "result": 3090, "unit": "µg/mL"}, {"measurement": "Individual concentration at saturation (Cs), Aspirin (A)", "setting": "[2]; 60 g/L mannitol, without pH adjustment", "result": "2.868 mg/mL and 2.484 mg/mL"}, {"measurement": "Cs (mean)", "setting": "[2]; Acidified 60 g/L mannitol", "result": 1.787, "unit": "mg/mL"}, {"measurement": "Cs (mean)", "setting": "[2]; Acidified ethanol", "result": 142.678, "unit": "mg/mL"}, {"measurement": "Individual concentration at saturation (Cs), Aspirin (A)", "setting": "[2]; Acidified ethanol", "result": "143.526 mg/mL and 142.299 mg/mL and 141.593 mg/mL"}, {"measurement": "Individual concentration at saturation (Cs), Aspirin (A)", "setting": "[2]; Acidified tert-butyl alcohol", "result": "48.73 mg/mL and 48.156 mg/mL and 48.453 mg/mL"}, {"measurement": "Individual concentration at saturation (Cs), Aspirin (A)", "setting": "[2]; Acidified water", "result": "1.924 mg/mL and 1.912 mg/mL"}, {"measurement": "Individual concentration at saturation (Cs), Aspirin (A)", "setting": "[2]; Ethanol, without pH adjustment", "result": "158.430 mg/mL and 163.027 mg/mL and 160.432 mg/mL"}, {"measurement": "Individual concentration at saturation (Cs), Aspirin (A)", "setting": "[2]; Tert-butyl alcohol, without pH adjustment", "result": "22.768 mg/mL and 23.150 mg/mL and 22.889 mg/mL"}, {"measurement": "Individual concentration at saturation (Cs), Aspirin (A)", "setting": "[2]; Water, without pH adjustment", "result": "3.429 mg/mL and 3.423 mg/mL"}, {"measurement": "solubility thermodynamic at 1 h", "setting": "[2]; acidified 60 g/L mannitol solution, saline or isotonic, Acidified 60 g/L mannitol", "result": 1780, "unit": "µg/mL"}, {"measurement": "solubility thermodynamic at 1 h", "setting": "[2]; acidified water, aqueous buffer, Acidified water", "result": 1890, "unit": "µg/mL"}, {"measurement": "solubility thermodynamic at 1 h", "setting": "[2]; water, Water, without pH adjustment", "result": 3090, "unit": "µg/mL"}, {"measurement": "pH after reconstitution", "setting": "[3]; Carbonate - NaOH 0.15M", "result": 6.254}, {"measurement": "325 mg ASA dissolves?", "setting": "[3]; Carbonate - NaOH 0.2M, 10 mL", "result": "YES -"}, {"measurement": "pH after reconstitution", "setting": "[3]; Carbonate - NaOH 0.2M, 10 mL", "result": 9.160}, {"measurement": "325 mg ASA dissolves?", "setting": "[3]; Carbonate - NaOH 0.25, 10 mL", "result": "YES -"}, {"measurement": "pH after reconstitution", "setting": "[3]; Carbonate - NaOH 0.25, 10 mL", "result": 9.646}, {"measurement": "Time needed to dissolve (±)", "setting": "[3]; Carbonate - NaOH 0.25, 10 mL, (3 min) + <1 min", "result": "<1", "unit": "min"}, {"measurement": "325 mg ASA dissolves?", "setting": "[3]; Carbonate - NaOH 0.5M, 5 mL", "result": "YES -"}, {"measurement": "Time needed to dissolve (±)", "setting": "[3]; Carbonate - NaOH 0.5M, 5 mL", "result": 3, "unit": "min"}, {"measurement": "pH after reconstitution", "setting": "[3]; Carbonate - NaOH 0.5M, 5 mL", "result": 7.534}, {"measurement": "325 mg ASA dissolves?", "setting": "[3]; Carbonate - NaOH 1M, 5 mL", "result": "YES -"}, {"measurement": "Time needed to dissolve (±)", "setting": "[3]; Carbonate - NaOH 1M, 5 mL", "result": "<3", "unit": "min"}, {"measurement": "pH after reconstitution", "setting": "[3]; Carbonate - NaOH 1M, 5 mL", "result": 9.308}, {"measurement": "325 mg ASA dissolves? If yes, in 5 or 10 mL?", "setting": "[3]; Carbonate-NaOH 0.025M, Ad 10 g", "result": "YES - 5 mL"}, {"measurement": "Time needed to dissolve (±)", "setting": "[3]; Carbonate-NaOH 0.025M, 5 mL", "result": 0.5, "unit": "min"}, {"measurement": "pH after reconstitution", "setting": "[3]; Carbonate-NaOH 0.025M, 5 mL", "result": 9.233}, {"measurement": "pH after reconstitution", "setting": "[3]; NaOH 0.1M", "result": 4.199}, {"measurement": "325 mg ASA dissolves? If yes, in 5 or 10 mL?", "setting": "[3]; NaOH 0.25M", "result": "YES - 10 mL"}, {"measurement": "pH after reconstitution", "setting": "[3]; NaOH 0.25M, 10 mL", "result": 7.099}, {"measurement": "Time needed to dissolve (±)", "setting": "[3]; NaOH 0.25M, 10 mL, (3 min) + <1 min", "result": "<1", "unit": "min"}, {"measurement": "325 mg ASA dissolves? If yes, in 5 or 10 mL?", "setting": "[3]; NaOH 0.3M", "result": "YES - 10 mL"}, {"measurement": "Time needed to dissolve (±)", "setting": "[3]; NaOH 0.3M, 10 mL, printed as (3 min) + 1 min", "result": 1, "unit": "min"}, {"measurement": "325 mg ASA dissolves? If yes, in 5 or 10 mL?", "setting": "[3]; NaOH 0.4M", "result": "YES - 10 mL"}, {"measurement": "pH after reconstitution", "setting": "[3]; NaOH 0.4M, 10 mL", "result": 12.103}, {"measurement": "Time needed to dissolve (±)", "setting": "[3]; NaOH 0.4M, 10 mL, (3 min) + <1 min", "result": "<1", "unit": "min"}, {"measurement": "325 mg ASA dissolves? If yes, in 5 or 10 mL?", "setting": "[3]; NaOH 0.5M", "result": "YES - 5 mL"}, {"measurement": "Time needed to dissolve (±)", "setting": "[3]; NaOH 0.5M, 5 mL", "result": "<1", "unit": "min"}, {"measurement": "pH after reconstitution", "setting": "[3]; NaOH 0.5M, 5 mL", "result": 7.229}, {"measurement": "325 mg ASA dissolves? If yes, in 5 or 10 mL?", "setting": "[3]; NaOH 1M", "result": "YES - 5 mL"}, {"measurement": "Time needed to dissolve (±)", "setting": "[3]; NaOH 1M, 5 mL", "result": "<0.25", "unit": "min"}, {"measurement": "pH after reconstitution", "setting": "[3]; NaOH 1M, 5 mL", "result": 12.814}, {"measurement": "325 mg ASA dissolves?", "setting": "[3]; TBST 1M, pH of medium 7.574, 10 mL", "result": "YES -"}, {"measurement": "Time needed to dissolve (±)", "setting": "[3]; TBST 1M, 10 mL", "result": 15, "unit": "min"}, {"measurement": "pH after reconstitution", "setting": "[3]; TBST 1M, 10 mL", "result": 7.100}, {"measurement": "Time needed to dissolve (±)", "setting": "[3]; Tris 0.025M, Ad 10 g, volume as in the dissolves column of the same line", "result": "<1 min and 2 min"}, {"measurement": "pH after reconstitution", "setting": "[3]; Tris 0.1M", "result": 4.195}, {"measurement": "325 mg ASA dissolves?", "setting": "[3]; Tris 0.25M, pH of medium 10.701, 10 mL", "result": "YES -"}, {"measurement": "pH after reconstitution", "setting": "[3]; Tris 0.25M, 10 mL", "result": 7.616}, {"measurement": "325 mg ASA dissolves?", "setting": "[3]; Tris 0.5M, pH of medium 10.814, 5 mL", "result": "YES -"}, {"measurement": "Time needed to dissolve (±)", "setting": "[3]; Tris 0.5M, 5 mL", "result": 3, "unit": "min"}, {"measurement": "pH after reconstitution", "setting": "[3]; Tris 0.5M, 5 mL", "result": 7.592}, {"measurement": "325 mg ASA dissolves?", "setting": "[3]; Tris 1M, pH of medium 11.047, 5 mL", "result": "YES -"}, {"measurement": "Time needed to dissolve (±)", "setting": "[3]; Tris 1M, 5 mL", "result": 3, "unit": "min"}, {"measurement": "pH after reconstitution", "setting": "[3]; Tris 1M, 5 mL", "result": 8.550}, {"measurement": "325 mg ASA dissolves? If yes, in 5 or 10 mL?", "setting": "[3]; buffer — , strength —, purified water Ad 10 g", "result": "Yes - 10 mL"}, {"measurement": "Time needed to dissolve (±)", "setting": "[3]; [4]", "result": 30, "unit": "min"}, {"measurement": "pH after reconstitution", "setting": "[3]; [4]", "result": 8.125}]}]}
